Measurements taken from US7307063B2, “Melanocortin metallopeptides for treatment of sexual dysfunction” (Palatin Technologies, Inc., priority 2001, dated 2007).
Non-standard residues stand in square brackets, D forms with d. No end group written: not given here. *: point of attachment. Bip = N[C@@H](Cc1ccc(-c2ccccc2)cc1)C(=O)O; dBip = N[C@H](Cc1ccc(-c2ccccc2)cc1)C(=O)O; 2Nal = N[C@@H](Cc1ccc2ccccc2c1)C(=O)O; dIgl = N[C@@H](C(=O)O)C1Cc2ccccc2C1; Heptanoyl = CCCCCCC(=O)*; Nle = CCCC[C@H](N)C(=O)O; Ahp = NCCCCCCC(=O)O; Bn = c1ccc(C*)cc1

Experiments:
hMC2-R = biological target: T1, hMC2-R (Homo sapiens, UniProt P41968); assay: Competitive binding assay of additional compounds, Table 6 hMC2-R; settings: 1 μM, mean of triplicate
T1 construct: expressed in transfected cells; host or cells: HEK-293
T1 sequence (P41968 whole entry): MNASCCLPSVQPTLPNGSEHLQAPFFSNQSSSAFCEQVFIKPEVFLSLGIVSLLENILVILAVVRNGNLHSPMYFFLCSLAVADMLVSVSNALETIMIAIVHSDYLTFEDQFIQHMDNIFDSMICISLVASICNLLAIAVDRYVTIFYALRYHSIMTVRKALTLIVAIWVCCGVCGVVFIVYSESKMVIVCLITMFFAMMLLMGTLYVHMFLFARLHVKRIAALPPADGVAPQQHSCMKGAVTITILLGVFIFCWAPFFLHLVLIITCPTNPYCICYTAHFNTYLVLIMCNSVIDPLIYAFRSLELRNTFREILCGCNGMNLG
Experimental: [The source words this procedure for another target and reports this target under the same test.] (§1) Rhenium-complexed metallopeptides of the formulas given in Table 1 were prepared, with the metallopeptides complexed with rhenium using the rhenium transfer agent ReOCl3(PPh3)2 in the presence of 1,8-Diazabicyclo[5,4,0] undec-7-ene as a base, as disclosed in International Application PCT/US00/16396, filed Jun. 14, 2000, Melanocortin Metallopeptide Constructs, Combinatorial Libraries and Applications, incorporated by reference herein. Affinities of compounds were measured using membranes from HEK-293 cells containing cloned human melanocortin receptor subtypes 3, 4 and 5. MC1-R membranes were isolated from B16—F10 mouse melanoma cells. The assay tube also contained a chosen concentration of the test peptide of this invention, complexed to a rhenium metal ion as indicated, for determining its efficacy in inhibiting the binding of ^125I-NDP-α-MSH to its receptor. Non-specific binding was measured by complete inhibition of binding of ^125I-NDP-α-MSH in the assay with the presence of 1 μM α-MSH. 100% specific binding was defined as the difference in radioactivity (cpm) bound to cell membranes in the absence and presence of 1 μM α-MSH. The cpm obtained in presence of test compounds were normalized with respect to 100% specific binding to determine the percent inhibition of ^125I-NDP-α-MSH binding.
(§2) Peptide sequences set forth in Table 6 were prepared using conventional synthetic means. The resulting sequences were rhenium-complexed to form metallopeptides, with the metallopeptides complexed with rhenium using the rhenium transfer agent ReOCl3(PPh3)2 in the presence of 1,8-Diazabicyclo[5,4,0] undec-7-ene as a base. Percent inhibition was determined as in Example 1 using the Re-complexed metallopeptides, using the same methods as described therein. All measures are means of triplicate determinations.

hMC5-R = biological target: T2, hMC5-R (Homo sapiens, UniProt P33032); assay: Competitive binding assay: inhibition of 125I-NDP-α-MSH binding to HEK-293 membranes with cloned human receptor subtype 5; settings: Table 6; 1 μM; mean of triplicate
T2 construct: expressed in transfected cells; host or cells: HEK-293
T2 sequence (P33032 whole entry): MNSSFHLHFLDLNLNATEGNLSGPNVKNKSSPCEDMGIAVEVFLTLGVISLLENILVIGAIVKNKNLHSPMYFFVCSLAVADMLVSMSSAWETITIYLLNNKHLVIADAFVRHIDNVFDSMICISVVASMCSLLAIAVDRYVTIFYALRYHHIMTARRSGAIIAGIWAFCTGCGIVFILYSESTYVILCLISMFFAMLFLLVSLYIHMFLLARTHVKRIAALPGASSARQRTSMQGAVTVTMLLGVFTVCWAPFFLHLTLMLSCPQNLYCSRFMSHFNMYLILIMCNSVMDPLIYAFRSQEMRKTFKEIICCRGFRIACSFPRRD
Experimental: as §1, §2

MC1-R = biological target: T3, MC1-R (Mus musculus, UniProt Q01727); assay: Competitive binding assay: inhibition of 125I-NDP-α-MSH binding to membranes from B16-F10 mouse melanoma cells; settings: Table 6, mean of triplicate
T3 construct: MC1-R membranes were isolated from B16—F10 mouse melanoma cells; endogenous in cells; host or cells: B16-F10 mouse melanoma cells
T3 sequence (Q01727 whole entry): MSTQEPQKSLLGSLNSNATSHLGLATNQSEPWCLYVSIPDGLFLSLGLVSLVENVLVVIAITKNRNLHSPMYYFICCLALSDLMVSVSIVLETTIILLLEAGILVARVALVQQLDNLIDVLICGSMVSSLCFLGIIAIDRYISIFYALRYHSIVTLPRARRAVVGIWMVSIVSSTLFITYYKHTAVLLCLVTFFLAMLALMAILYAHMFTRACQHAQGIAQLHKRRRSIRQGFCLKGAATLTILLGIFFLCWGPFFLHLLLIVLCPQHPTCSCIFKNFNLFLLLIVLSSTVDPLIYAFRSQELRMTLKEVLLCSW
Experimental: as §1, §2

MC4-R = biological target: T4, MC4-R (Homo sapiens, UniProt P32245); assay: Competitive binding assay: inhibition of 125I-NDP-α-MSH binding to HEK-293 membranes with cloned human receptor subtype 4; settings: Table 6, mean of triplicate
T4 construct: expressed in transfected cells; host or cells: HEK-293
T4 sequence (P32245 whole entry): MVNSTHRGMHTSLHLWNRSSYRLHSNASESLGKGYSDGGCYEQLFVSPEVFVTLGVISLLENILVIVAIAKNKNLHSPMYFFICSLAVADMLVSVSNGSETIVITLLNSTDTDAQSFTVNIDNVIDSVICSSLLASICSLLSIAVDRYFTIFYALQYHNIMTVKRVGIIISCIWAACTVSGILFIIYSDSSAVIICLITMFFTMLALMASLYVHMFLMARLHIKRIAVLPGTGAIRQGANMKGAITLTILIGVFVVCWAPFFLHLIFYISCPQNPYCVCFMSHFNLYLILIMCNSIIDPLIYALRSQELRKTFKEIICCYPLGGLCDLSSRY
Experimental: as §1, §2

[1] = 1 μM, listed as 3′-Bromo phenyl acetyl-Arg-Arg-D-Phe(4′-Cl)-Cys-Nal 2′-NH2, 1 µM
[2] = 1 μM, listed as Hept-Ser(Bzl)-D-Nal 2′-Arg-Nal 2′-Cys-NH2, 1 µM

Row | % Inhibition of Binding hMC2-R (hMC2-R) [%] | % Inhibition of Binding MC1-R (MC1-R; 1 μM) [%] | % Inhibition of Binding hMC4-R (MC4-R; 1 μM) [%] | Substance | further results
1 | 0 | 47 | 5 | 7-amino-Heptanoyl-D-Igl-D-Phe-Arg-Trp-Cys-NH2 ([Ahp][dIgl][dF]RWC-NH2; not fully specified; printed as 7-amino-Heptanoyl-D-Igl-D-Phe-Arg-Trp-Cys-NH2) | % Inhibition of Binding hMC5-R (hMC5-R): 35%
2 | 85 | 90 | 84 | 3′-Br Phenyl acetyl-Arg-Arg-D-Phe(4′-Cl)-Cys-Nal 1′-NH2 | % Inhibition of Binding hMC5-R (hMC5-R): 89%
3 | 23 | 18 | 71 | Ser(Bzl)-D-Nal 2′-Arg-Nal 2′-Cys-NH2 | % Inhibition of Binding hMC5-R (hMC5-R): 91%
4 | 100 | 95 |  | Ac-[Nle]AH[dBip]R[Bip]C-NH2 | 
5 |  | 57 | 83 | Heptanoyl-Ser(Bzl)-D-Phe(2′-F)-Lys-Nal 2′-Cys-NH2 | 
6 |  | 10 | 20 | Heptanoyl-D-Hphe-D-Phe(2′-Cl)-Lys-Nal 2′-Cys-NH2 | 
7 |  | 22 | 95 | 3′-Br Phenyl acetyl-Arg-Ala-D-Phe(4′-CF3)-Cys-Trp-NH2 | 
8 |  | 29 | 3 | Ac-[Nle]A[dF][dC]RW-NH2 | 
9 |  | 78 | 90 | 2′-Naphthyl acetyl-Arg-Arg-D-Phe(3′-Cl)-Cys-Trp-NH2 | 
10 |  | 34 | 73 | 3′-Br-Phenylacetyl-Lys-Ala-D-Phe(4′-CH3)Cys-Lys-NH2 | 
11 | 100 | 99 |  | Ac-[Nle]AH[dBip]RWC-NH2 | 
12 |  | 92 | 32 | Heptanoyl-R[dF]GWCK-NH2 | 
13 |  | 11 | 22 | Ph(CH2)-CO-D-Phe(2′-Cl)-Lys-Nal 2′-Cys-NH2 | 
14 | 0 | 84 |  | Heptanoyl-S(Bn)[dBip]RWC-NH2 | 

More lines, now with the values behind:

Row | Substance | % Inhibition of Binding hMC2-R (hMC2-R) [%] | % Inhibition of Binding MC1-R (MC1-R; 1 μM) [%] | % Inhibition of Binding hMC4-R (MC4-R; 1 μM) [%] | further results
15 | D-Tiq-D-Phe-Arg-Cys-Trp-NH2 | 3 | 43 | 13 | % Inhibition of Binding hMC5-R (hMC5-R): 39%
16 | D-Igl-D-Nal 2′-Arg-Trp-Cys-NH2 | 73 | 27 | 97 | % Inhibition of Binding hMC5-R (hMC5-R): 85%
17 | Ac-[Nle]AH[dBip]RCW-NH2 | 100 | 72 |  | 
18 | 3′-Br Phenyl acetyl-Arg-Arg-D-Phe(4′-Cl)-Cys-Nal 2′-NH2 | 95 | 90 | 96 | % Inhibition of Binding hMC2-R (hMC2-R; listed as 3′-Bromo phenyl acetyl-Arg-Arg-D-Phe(4′-Cl)-Cys-Nal 2′-NH2, 1 µM): 55%; % Inhibition of Binding MC1-R (MC1-R; [1]): 79%; % Inhibition of Binding hMC4-R (MC4-R; [1]): 94%
19 | Ac-[Nle]AH[dF]RC[Bip]-NH2 | 100 | 82 |  | 
20 | Heptanoyl-Ser(Bzl)-D-Phe(4′-Cl)-Arg-Bip-Cys-NH2 | 5 | 65 |  | 
21 | Ac-[Nle]AH[dF]R[Bip]C-NH2 | 100 | 35 |  | 
22 | 4′-Aminomethyl-Phenylacetyl-Arg-Arg-D-Phe(4′-Cl)-Cys-Trp-NH2 |  |  |  | % Inhibition of Binding MC1-R (MC1-R; 0.1 μM): 81%; % Inhibition of Binding hMC4-R (MC4-R; 0.1 μM): 57%
23 | [dF]RW[dC]K-NH2 |  | 23 | 42 | 
24 | 3′-Br Phenyl acetyl-Arg-Ala-D-Phe(4′-Me)-Cys-Trp-NH2 |  | 25 | 96 | 
25 | HyP(Bzl)-D-Phe(2′-Cl)-Nal 2′-Cys-NH2 |  | 57 | 85 | 
26 | Heptanoyl-H[dF]RWCK-NH2 |  | 100 | 98 | 
27 | Heptanoyl-Ser(Bzl)-D-Phe(2′-Cl)-Lys-Hphe-Cys-NH2 |  | 12 | 6 | 
28 | Heptanoyl-D-Phe-Arg-Trp-Cys-Lys-NH2 (Heptanoyl-[dF]RWCK-NH2; also: metallopeptide) |  | 82 | 75 | 
29 | Ac-[Nle]AH[dBip]RC[Bip]-NH2 | 100 | 77 |  | 
30 | 1′-Naphthyl acetyl-Arg-Arg-D-Phe(3′-Cl)-Cys-Trp-NH2 |  | 77 | 92 | 
31 | (R)-4-amino-5-phenyl pentanoyl-Lys-Ala-D-Phe(4′-Me)-Cys-Trp-NH2 |  | 23 | 46 | 
32 | 3′-Br-Phenylacetyl-Arg-Arg-D-Phe(4′-CH2PO3Et3)-Cys-Trp-NH2 |  | 97 | 61 | 
33 | Heptanoyl-Ser(Bzl)-D-Nal 2′-Arg-Trp-Cys-Lys-NH2 |  | 72 | 100 | 
34 | Heptanoyl-Ser(Bzl)-D-Phe(4′-Cl)-Arg-Tyr(3′,5′-Di-l)-Cys-NH2 |  |  |  | % Inhibition of Binding MC1-R (MC1-R; 0.1 μM): 10%; % Inhibition of Binding hMC4-R (MC4-R; 0.1 μM): 85%

Row | Substance | % Inhibition of Binding hMC2-R (hMC2-R) [%] | % Inhibition of Binding MC1-R (MC1-R; 1 μM) [%] | % Inhibition of Binding hMC4-R (MC4-R; 1 μM) [%] | further results
35 | 4′-Aminomethyl-Phenylacetyl Arg-Arg-Ala-D-Phe(4′-Cl)-Cys-Trp-NH2 |  | 61 | 84 | 
36 | 3′-Br Phenyl acetyl-Arg-Ala-D-Phe(3′-Cl)-Cys-Trp-NH2 |  | 23 | 84 | 
37 | [dF]RW[dC]W-NH2 |  | 53 | 45 | 
38 | Heptanoyl-Ser(Bzl)-D-Phe(2′-Cl)-Lys-Phg-Cys-NH2 |  | 16 | 15 | 
39 | Heptanoyl-Ser(Bzl)-D-Phe(4′-Cl)-Arg-Phe(2′-Cl)-Cys-NH2 |  |  |  | % Inhibition of Binding MC1-R (MC1-R; 0.1 μM): 9%; % Inhibition of Binding hMC4-R (MC4-R; 0.1 μM): 28%
40 | Ph(CH2)2-CO-D-Phe(2′-Cl)-Lys-Nal 2′-Cys-NH2 |  | 0 | 26 | 
41 | Heptanoyl-Ala-Nal 2′-Cys-Trp-NH2 (Heptanoyl-A[2Nal]CW-NH2; also: metallopeptide, metal not given here) |  | 15 | 18 | 
42 | D-(N-Bzl) Phe(2′-Cl)-Lys-Nal 2′-Cys-NH2 |  | 69 | 97 | 
43 | Heptanoyl-Ser(Bzl)-D-Phe(4′-Cl)-Arg-Tyr(Bzl)-Cys-NH2 |  | 16 | 85 | 
44 | (N-PhEt)-D-Phe(2′-Cl)-Lys-Nal 2′-Cys-NH2 |  |  |  | % Inhibition of Binding MC1-R (MC1-R; 0.1 μM): 64%; % Inhibition of Binding hMC4-R (MC4-R; 0.1 μM): 80%
45 | PhCO-D-Phe(2′-Cl)-Lys-Nal 2′-Cys-NH2 |  | 60 | 41 | 
46 | Heptanoyl-Ser(Bzl)-D-Phe(4′-Cl)-Arg-Hphe-Cys-NH2 |  | 38 | 43 | 
47 | Heptanoyl-Hphe-D-Phe(4′-Cl)-Arg-Trp-Cys-NH2 |  |  |  | % Inhibition of Binding MC1-R (MC1-R; 0.1 μM): 45%; % Inhibition of Binding hMC4-R (MC4-R; 0.1 μM): 80%
48 | Heptanoyl-S(Bn)[dBip]R[Bip]C-NH2 | 0 | 30 |  | 
49 | Ac-KA[dF][dC]RW-NH2 |  | 25 | 13 | 
50 | 3′-Br Phenyl acetyl-Arg-Arg-D-Phe(3′-Cl)-Cys-Trp-NH2 |  | 79 | 96 | 
51 | Heptanoyl-Ser(Bzl)-D-Phe(4′-Cl)-Arg-Phe-Cys-NH2 |  |  |  | % Inhibition of Binding MC1-R (MC1-R; 0.1 μM): 11%; % Inhibition of Binding hMC4-R (MC4-R; 0.1 μM): 32%
52 | D-Phe(4′-Cl)-Arg-Nal 2′-Cys-Lys-NH2 |  |  |  | % Inhibition of Binding MC1-R (MC1-R; 0.01 μM): 43%; % Inhibition of Binding hMC4-R (MC4-R; 0.01 μM): 73%
53 | Heptanoyl-Ser(Bzl)-D-Nal 2′-Arg-Nal 2′-Cys-NH2 | 41 | 28 | 91 | % Inhibition of Binding hMC2-R (hMC2-R; listed as Hept-Ser(Bzl)-D-Nal 2′-Arg-Nal 2′-Cys-NH2, 1 µM): 62%; % Inhibition of Binding MC1-R (MC1-R; [2]): 25%; % Inhibition of Binding hMC4-R (MC4-R; [2]): 92%
